# Measurements as given in article PMC10890502, “Prevention of Protease-Induced Degradation of Desmoplakin via Small Molecule Binding” (Journal of Personalized Medicine, 2024).
# Residue numbers refer to the chain shown, from its start. Read-outs that look alike come from different tables or passages of the source.
# Assays:
# Assay in all cases: biochemical
# sDSP (DSP178–627) [1] = molecular target: T1, sDSP (DSP178–627) (Homo sapiens, UniProt P15924, S442F); parameters: FITC-sDSP S442F degradation by trypsin (1:50), fluorescence polarization after 60 min, per cent of protease-only control; conditions: degradation rate of DSP S442F by trypsin; read-out: % of control remaining
# T1 construct: gene DSP; N-terminal spectrin repeat/SH3 fragment, residues 178-627; pGEX-1 GST fusion cut with thrombin, E. coli BL21(DE3); fluorescein-5-maleimide label on exposed cysteines (C405, C524)
# T1 sequence (P15924 178-627 S442F): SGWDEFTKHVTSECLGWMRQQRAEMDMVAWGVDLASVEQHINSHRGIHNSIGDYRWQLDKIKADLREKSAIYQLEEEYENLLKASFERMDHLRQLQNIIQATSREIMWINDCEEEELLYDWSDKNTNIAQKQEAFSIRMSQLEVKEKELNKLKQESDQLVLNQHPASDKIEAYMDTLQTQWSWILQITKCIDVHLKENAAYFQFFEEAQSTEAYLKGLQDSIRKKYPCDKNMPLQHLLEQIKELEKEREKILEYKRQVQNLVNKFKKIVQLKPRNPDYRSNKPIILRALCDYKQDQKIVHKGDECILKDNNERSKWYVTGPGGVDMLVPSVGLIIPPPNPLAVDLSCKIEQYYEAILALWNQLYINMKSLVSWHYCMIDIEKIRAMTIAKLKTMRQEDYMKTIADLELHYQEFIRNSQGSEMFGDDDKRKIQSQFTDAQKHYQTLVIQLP
# Procedure: Fluorescence Polarization (FP) assays were conducted in […] format using a BioTek Synergy H4 plate reader with polarization capacity (Agilent; Savage, MD, USA). All samples were run at 25 °C using PBS pH 7.4, 1 mM DTT, 10 mM CaCl2, 5% DMSO, and […] FITC- DSP178–627, with 500 μM of each drug. Trypsin, chymotrypsin, or calpain at either 1:50, 1:50, or 1:20 concentration was added directly before data collection with an average void time of 2 min. Control experiments in each plate were conducted in triplicate and consisted of DSP178–627 + DMSO + protease as a positive control and DSP178–627 + DMSO + [compound left out] + protease as a negative control. Only plates that had functional positive and negative controls were used in data analysis. Samples were excited at 485 nm, and polarization was monitored at 528 nm. Data were collected at 5 min increments for 1–3 h. A mutation that partially occludes the DSP calpain cleavage site rescues DSP protein levels. We next assessed whether protease-dependent cleavage can also be blocked by small molecules. We screened 2496 FDA-approved drugs for their ability to prevent trypsin-dependent cleavage of sDSP S442F in our FP assay (Figure 3A). […] No change in fluorescence polarization after an hour is indicative of 0% protein degradation rate, as occurs in the [compound left out] positive control. […] (A) sDSP S442F degradation in the presence of trypsin plus 2496 compounds from the Cayman chemical “FDA library”. A degradation rate of 100% indicates the same desmoplakin degradation rate with and without the addition of 500 μM drug while a 0% rate indicates no degradation, as judged by fluorescent polarization values after 1 h. A trypsin-only control and a trypsin + [compound left out] control is indicated. Protection (red lines) was arbitrarily set between 33% and −10%. […] (B) Example of how the data in A was generated.
# sDSP (DSP178–627) [2] = molecular target: T2, sDSP (DSP178–627) (Homo sapiens, UniProt P15924); parameters: FITC-sDSP degradation by calpain (1:20), fluorescence polarization after 60 min, per cent of calpain-only control; conditions: degradation rate of DSP WT by calpain; read-out: % of control remaining
# T2 construct: gene DSP; N-terminal spectrin repeat/SH3 fragment, residues 178-627; pGEX-1 GST fusion cut with thrombin, E. coli BL21(DE3); fluorescein-5-maleimide label on exposed cysteines (C405, C524)
# T2 sequence (P15924 178-627): T1 sequence (P15924 178-627 S442F) with F265S
# Procedure: (§1) Fluorescence Polarization (FP) assays were conducted in […] format using a BioTek Synergy H4 plate reader with polarization capacity (Agilent; Savage, MD, USA). All samples were run at 25 °C using PBS pH 7.4, 1 mM DTT, 10 mM CaCl2, 5% DMSO, and […] FITC- DSP178–627, with 500 μM of each drug. Trypsin, chymotrypsin, or calpain at either 1:50, 1:50, or 1:20 concentration was added directly before data collection with an average void time of 2 min. Control experiments in each plate were conducted in triplicate and consisted of DSP178–627 + DMSO + protease as a positive control and DSP178–627 + DMSO + [compound left out] + protease as a negative control. Only plates that had functional positive and negative controls were used in data analysis. Samples were excited at 485 nm, and polarization was monitored at 528 nm. Data were collected at 5 min increments for 1–3 h. […] Therefore, we next tested whether these 62 compounds also prevent wildtype and variant DSP degradation in the presence of calpain. […] (A) Normalized fluorescent polarization of WT and sDSP variants in the presence of a 1:20 ratio of calpain plus 500 μM drug, as compared to calpain alone (black) (B) Identity and chemical structure of the six best-performing compounds.
# sDSP (DSP178–627) [3] = molecular target: T3, sDSP (DSP178–627) (Homo sapiens, UniProt P15924, R451G); parameters: FITC-sDSP degradation by calpain (1:20), fluorescence polarization after 60 min, per cent of calpain-only control; conditions: degradation rate of DSP R451G by calpain; read-out: % of control remaining
# T3 construct: gene DSP; N-terminal spectrin repeat/SH3 fragment, residues 178-627; pGEX-1 GST fusion cut with thrombin, E. coli BL21(DE3); fluorescein-5-maleimide label on exposed cysteines (C405, C524)
# T3 sequence (P15924 178-627 R451G): T1 sequence (P15924 178-627 S442F) with F265S, R274G
# Procedure: as §1
# sDSP (DSP178–627) [4] = molecular target: T1, sDSP (DSP178–627); parameters: FITC-sDSP degradation by calpain (1:20), fluorescence polarization after 60 min, per cent of calpain-only control; conditions: degradation rate of DSP S442F by calpain; read-out: % of control remaining
# Procedure: as §1
# sDSP S507F = molecular target: T4, sDSP S507F (Homo sapiens, UniProt P15924, S507F); parameters: FITC-sDSP degradation by calpain (1:20), fluorescence polarization after 60 min, per cent of calpain-only control; conditions: degradation rate of DSP S507F by calpain; read-out: % of control remaining
# T4 construct: gene DSP; N-terminal fragment, residues 178-627
# T4 sequence (P15924 whole entry S507F, the tested form may be a part): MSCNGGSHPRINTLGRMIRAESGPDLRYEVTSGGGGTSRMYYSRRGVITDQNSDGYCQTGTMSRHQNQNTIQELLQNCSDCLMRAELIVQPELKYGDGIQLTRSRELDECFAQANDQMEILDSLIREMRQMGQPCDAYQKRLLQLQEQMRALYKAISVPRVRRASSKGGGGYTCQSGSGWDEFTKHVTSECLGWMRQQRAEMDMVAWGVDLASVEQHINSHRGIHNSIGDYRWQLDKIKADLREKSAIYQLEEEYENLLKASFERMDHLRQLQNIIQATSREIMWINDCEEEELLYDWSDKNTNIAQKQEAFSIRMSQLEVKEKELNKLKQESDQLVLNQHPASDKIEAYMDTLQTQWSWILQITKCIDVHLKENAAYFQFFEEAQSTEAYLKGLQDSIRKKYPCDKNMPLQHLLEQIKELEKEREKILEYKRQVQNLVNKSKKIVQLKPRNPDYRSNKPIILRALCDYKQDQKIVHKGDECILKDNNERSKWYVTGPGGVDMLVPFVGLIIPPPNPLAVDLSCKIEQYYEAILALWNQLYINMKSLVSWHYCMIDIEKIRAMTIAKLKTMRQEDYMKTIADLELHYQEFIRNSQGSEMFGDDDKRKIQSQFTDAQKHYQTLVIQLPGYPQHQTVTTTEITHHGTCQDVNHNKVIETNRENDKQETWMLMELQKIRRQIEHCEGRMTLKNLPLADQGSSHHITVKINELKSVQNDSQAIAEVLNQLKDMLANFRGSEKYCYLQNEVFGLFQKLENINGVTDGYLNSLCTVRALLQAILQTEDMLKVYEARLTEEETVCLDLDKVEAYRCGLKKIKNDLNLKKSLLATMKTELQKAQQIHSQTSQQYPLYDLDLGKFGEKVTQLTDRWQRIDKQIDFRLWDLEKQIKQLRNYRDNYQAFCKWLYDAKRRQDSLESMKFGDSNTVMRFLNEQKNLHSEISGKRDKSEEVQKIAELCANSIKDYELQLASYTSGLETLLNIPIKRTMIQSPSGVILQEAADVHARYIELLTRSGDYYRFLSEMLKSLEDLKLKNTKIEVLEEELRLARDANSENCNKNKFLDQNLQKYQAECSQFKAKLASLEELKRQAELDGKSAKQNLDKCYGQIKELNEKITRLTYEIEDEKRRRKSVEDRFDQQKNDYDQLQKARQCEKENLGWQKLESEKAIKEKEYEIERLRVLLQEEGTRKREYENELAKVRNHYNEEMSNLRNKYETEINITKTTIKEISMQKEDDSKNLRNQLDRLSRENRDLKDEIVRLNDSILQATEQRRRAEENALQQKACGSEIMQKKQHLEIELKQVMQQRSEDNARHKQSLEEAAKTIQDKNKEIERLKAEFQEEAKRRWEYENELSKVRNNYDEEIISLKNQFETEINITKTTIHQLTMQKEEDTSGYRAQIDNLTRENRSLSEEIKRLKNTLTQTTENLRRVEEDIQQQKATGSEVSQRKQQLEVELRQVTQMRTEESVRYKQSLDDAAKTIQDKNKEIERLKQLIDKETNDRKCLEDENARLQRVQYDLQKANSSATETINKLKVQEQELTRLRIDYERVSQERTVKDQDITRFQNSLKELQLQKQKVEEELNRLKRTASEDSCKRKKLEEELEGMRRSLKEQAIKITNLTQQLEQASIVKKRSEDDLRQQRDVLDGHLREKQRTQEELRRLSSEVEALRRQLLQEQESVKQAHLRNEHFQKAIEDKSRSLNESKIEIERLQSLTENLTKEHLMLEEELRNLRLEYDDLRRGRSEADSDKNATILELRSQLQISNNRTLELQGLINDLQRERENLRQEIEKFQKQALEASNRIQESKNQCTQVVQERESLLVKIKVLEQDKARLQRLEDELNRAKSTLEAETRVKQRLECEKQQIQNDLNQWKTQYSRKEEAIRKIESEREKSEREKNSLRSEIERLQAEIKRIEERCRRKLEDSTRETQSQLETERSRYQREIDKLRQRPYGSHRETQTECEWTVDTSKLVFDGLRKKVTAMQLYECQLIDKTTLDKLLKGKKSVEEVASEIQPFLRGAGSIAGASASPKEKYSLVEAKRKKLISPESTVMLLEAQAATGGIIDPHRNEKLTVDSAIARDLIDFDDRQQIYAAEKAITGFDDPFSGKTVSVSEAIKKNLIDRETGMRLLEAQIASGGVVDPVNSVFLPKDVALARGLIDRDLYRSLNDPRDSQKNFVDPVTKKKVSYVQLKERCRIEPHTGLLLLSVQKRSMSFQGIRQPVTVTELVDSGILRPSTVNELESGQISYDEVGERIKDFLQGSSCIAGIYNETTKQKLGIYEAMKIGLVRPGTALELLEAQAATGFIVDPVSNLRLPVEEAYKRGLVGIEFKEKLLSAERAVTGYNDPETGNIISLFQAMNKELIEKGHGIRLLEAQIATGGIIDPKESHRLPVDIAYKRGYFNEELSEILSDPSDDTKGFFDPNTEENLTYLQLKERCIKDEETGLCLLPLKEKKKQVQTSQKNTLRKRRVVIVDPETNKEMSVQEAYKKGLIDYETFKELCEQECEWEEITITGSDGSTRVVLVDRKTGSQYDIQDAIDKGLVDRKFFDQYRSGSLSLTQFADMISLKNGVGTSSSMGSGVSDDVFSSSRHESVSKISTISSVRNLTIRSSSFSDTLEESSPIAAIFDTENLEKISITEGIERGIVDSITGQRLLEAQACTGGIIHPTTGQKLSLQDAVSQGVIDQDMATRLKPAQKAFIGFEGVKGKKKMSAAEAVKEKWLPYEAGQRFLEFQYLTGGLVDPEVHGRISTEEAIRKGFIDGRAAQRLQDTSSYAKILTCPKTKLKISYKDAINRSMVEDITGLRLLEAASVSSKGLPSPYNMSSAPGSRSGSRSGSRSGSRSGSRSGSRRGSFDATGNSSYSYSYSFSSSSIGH
# Procedure: as §1
smiles,measurement,setting,value
CCN(CC)CC#CCOC(=O)C(O)(c1ccccc1)C1CCCCC1 (centres unmarked) [Oxybutynin chloride],remaining activity at 500 µM,sDSP (DSP178–627) [1],24%
same,remaining activity at 500 µM,sDSP (DSP178–627) [2],91%
same,remaining activity at 500 µM,sDSP (DSP178–627) [3],31%
same,remaining activity at 500 µM,sDSP (DSP178–627) [4],-5%
same,remaining activity at 500 µM,sDSP S507F,77%
